Assay results reported in patent US8138119B2, “Alkoxyalkyl spirocyclic tetramic acids and tetronic acids” (Bayer Cropscience AG, priority 2005, dated 2012).

Assays:
cereal = test: Profiling test, herbicidal post-emergence action with safener: container trials with cereal in a greenhouse, Mefenpyr 1 day prior to herbicide application; type: in vivo; settings: without safener
Protocol: Seeds of monocotyledonous and dicotyledonous weed and crop plants are placed in sandy loam soil in wood fibre pots or in plastic pots, covered with soil and cultivated in a greenhouse, during the vegetation period also outdoors outside of the greenhouse, under good growth conditions. 2-3 weeks after sowing, the test plants are treated at the one- to three-leaf stage. The test compounds, formulated as wettable powders (WP) or liquid (EC), are, in various dosages with a water application rate of 300 l/ha (converted), with wetting agent (0.2 to 0.3%) added, sprayed onto the plants and the surface of the soil. […]
(§1) If it is additionally to be tested as to whether safeners can improve the plant compatibility of test substances in the case of crop plants, the following options are used for applying the safener: • seeds of the crop plants are, before sowing, dressed with the safener substance (the amount of safener stated in percent, based on the weight of the seed) • before the application of the test substances, the proper plants are sprayed with the safener at a certain application rate per hectare (usually 1 day before the application of the test substances) • the safener is applied together with the test substance as a tank mix (the amount of safener stated in g/ha or as a ratio, based on the herbicide).
(§2) By comparing the effect of the test substances on crop plants without or with safener treatment, it is possible to assess the effect of the safener substance.

maize = test: Profiling test, herbicidal pre-emergence action with safener: container trials with maize in the greenhouse, Ex. II-e-5 1 day prior to herbicide application; type: in vivo; settings: 28 days after application, without safener
Protocol: Seeds of monocotyledonous and dicotyledonous weed and crop plants are placed in sandy loam soil in wood fibre pots or in plastic pots and covered with soil. The pots are watered slightly, and the soil surface is then treated with various dosages of the test compounds, formulated as wettable powders (WP) or liquid (EC), at a water application rate of 300 l/ha (converted). The pots with the plants are cultivated in a greenhouse, during the vegetation period also outdoors outside of the greenhouse, under good growth conditions. 3-4 weeks after sowing and the treatment of the pots, the activity of the preparations is rated visually in comparison to untreated controls (herbicidal activity in percent (%): 100% activity=the plants have died, 0% activity=like control plants).
as §1, with “pots of crop” for “proper”
as §2

[1] = test system: caterpillars of the armyworm (Spodoptera exigua, resistant strain); test: Spodoptera exigua test; resistant strain (SPODEX R); type: in vivo; settings: 100 ppm, cabbage leaves dipped
Protocol: (§3) Solvent: 7 parts by weight of dimethylformamide
(§4) Emulsifier: 2 parts by weight of alkylaryl polyglycol ether
(§5) To produce a suitable preparation of active compound, 1 part by weight of active compound is mixed with the stated amounts of solvent and emulsifier, and the concentrate is diluted with emulsifier-containing water to the desired concentration.
Cabbage leaves (Brassica oleracea) are treated by being dipped into the active compound preparation of the desired concentration and populated with caterpillars of the armyworm (Spodoptera exigua, resistant strain) while the leaves are still moist.
(§6) After the desired period of time, the kill in % is determined. 100% means that all caterpillars have been killed; 0% means that none of the caterpillars have been killed.

[2] = test system: caterpillars of the diamondback moth (Plutella xylostella); test: Plutella test (PLUTMA); type: in vivo; settings: 100 ppm, cabbage leaves dipped
Protocol: as §3, §4, §5
Cabbage leaves (Brassica oleracea) are treated by being dipped into the active compound preparation of the desired concentration and populated with caterpillars of the diamondback moth (Plutella xylostella) while the leaves are still moist.
as §6

[3] = test system: caterpillars of the armyworm (Spodoptera exigua); test: Spodoptera exigua test (SPODEX); type: in vivo; settings: 100 ppm, cabbage leaves dipped
Protocol: as §3, §4
To produce a suitable preparation of active compound, 1 part by weight of active compound is mixed with the stated amounts of solvent and emulsifier, and the concentrate is diluted with water to the desired concentration.
Cabbage leaves (Brassica oleracea) are treated by being dipped into the active compound preparation of the desired concentration and populated with caterpillars of the armyworm (Spodoptera exigua) while the leaves are still moist.
as §6

[4] = Determination of the log P values by HPLC on a reversed-phase column (C18); type: physicochemical; settings: for chromatographic logP: reversed-phase HPLC column (C18)
Protocol: The log P values given in the table were determined in accordance with EEC Directive 79/831 Annex V.A8 by HPLC (High Performance Liquid Chromatography) on a reversed-phase column (C18). Temperature: 43° C.
Mobile phases for the determination in the acidic range (pH 2.3): 0.1% aqueous phosphoric acid, acetonitrile; linear gradient from 10% acetonitrile to 90% acetonitrile
Calibration was carried out using unbranched alkan-2-ones (with 3 to 16 carbon atoms) whose log P values are known (determination of the log P values by the retention times using linear interpolation between two successive alkanones).

[5] = 28 days after application, 12.5 g of a.i./ha
[6] = 28 days after application, 25 g of a.i./ha
[7] = 28 days after application, 11 g of a.i./ha
[8] = 28 days after application, 23 g of a.i./ha
[9] = 28 days after application, 46 g of a.i./ha
[10] = 28 days after application, 91 g of a.i./ha
[11] = compounds of the formula (I-2-a), m.p. ° C./log P
[12] = pH 2.3, HPLC reversed-phase column (C18), acidic range (pH 2.3), 43° C.
[13] = HPLC reversed-phase column (C18), acidic range (pH 2.3), 43° C.

CCc1cc(C)cc(Br)c1C1=C(O)C2(CCC(COC)CC2)NC1=O (single isomer, unassigned) [Example I-1-a-3]
Summer barley observed (%) (cereal; [5]): 20%
Summer barley observed (%) (cereal; [6]): 60%
Summer wheat observed (%) (cereal; 10 days after application, 12.5 g of a.i./ha): 20%
Summer wheat observed (%) (cereal; 10 days after application, 25 g of a.i./ha): 40%

CCc1cc(Cl)cc(OC)c1C1=C(O)C2(CCC(COC)CC2)NC1=O (single isomer, unassigned) [Example I-1-a-4]
Summer barley observed (%) (cereal; [6]): 50%
Maize - Arsenal observed (%) (maize; 12.5 g of a.i./ha): 40%
Maize - Arsenal observed (%) (maize; 25 g of a.i./ha): 65%

COCC1CCC2(CC1)NC(=O)C(c1cc(-c3ccc(Cl)cc3)ccc1C)=C2O (single isomer, unassigned) [Example I-1-a-5]
efficacy (kill of caterpillars) [1]: ≥ 80%
efficacy (kill of caterpillars) [2]: ≥ 80%
efficacy (kill of caterpillars) [3]: ≥ 80%

CCc1cc(C)cc(Br)c1C1=C(O)C2(CCCC(COC)C2)NC1=O (single isomer, unassigned) [Example I-1-a-8]
Summer wheat observed (%) (cereal; [5]): 90%
Summer wheat observed (%) (cereal; [6]): 95%

CCCOCC1CCCC2(C1)NC(=O)C(c1c(Br)cc(C)cc1CC)=C2O (single isomer, unassigned) [Example I-1-a-12]
Summer barley observed (%) (cereal; [7]): 10%
Summer barley observed (%) (cereal; [8]): 20%
Summer barley observed (%) (cereal; [9]): 30%
Summer barley observed (%) (cereal; [10]): 60%
Summer wheat observed (%) (cereal; [7]): 10%
Summer wheat observed (%) (cereal; [8]): 15%
Summer wheat observed (%) (cereal; [9]): 20%
Summer wheat observed (%) (cereal; [10]): 30%

CCc1cc(Cl)cc(OC)c1C1=C(OC(=O)COC)C2(CCCC(COC)C2)NC1=O (single isomer, unassigned) [Example I-1-b-6]
Summer barley observed (%) (cereal; [5]): 70%

CCOC(=O)OC1=C(c2c(Br)cc(C)cc2CC)C(=O)NC12CCC(COC)CC2 (single isomer, unassigned) [Example I-1-c-6]
Maize - Cecilia observed (%) (maize; 12.5 g of a.i./ha): 60%

CCOC(=O)OC1=C(c2c(CC)cc(Cl)cc2OC)C(=O)NC12CCC(COC)CC2 (single isomer, unassigned) [Example I-1-c-7]
Maize - Arsenal observed (%) (maize; 25 g of a.i./ha): 60%

CCOC(=O)OC1=C(c2c(C)cc(C)cc2C)C(=O)NC12CCCC(COC)C2 (single isomer, unassigned) [Example I-1-c-9]
Maize - Cecilia observed (%) (maize; 100 g of a.i./ha): 50%

CCc1cc(Br)cc(CC)c1C1=C(O)C2(CCC(CCOC)CC2)OC1=O (stereo not drawn) [Example I-2-a-32]
log P [4, 11]: oil/3.59

CCc1cc(C)cc(CC)c1C1=C(O)C2(CCC(CCOC)CC2)OC1=O (stereo not drawn) [Example I-2-a-33]
log P [4, 11]: oil/3.40

COCCC1CCC2(CC1)OC(=O)C(c1cc(-c3ccc(Cl)cc3)ccc1Cl)=C2O (stereo not drawn) [Example I-2-a-35]
log P [4, 11]: oil/3.67

COCCC1CCC2(CC1)OC(=O)C(c1c(C)cc(C)cc1C)=C2OC(=O)C(C)C (stereo not drawn) [Example I-2-b-1]
chromatographic logP [4, 12]: 4.79

CCc1cc(C)cc(CC)c1C1=C(OC(=O)C(C)C)C2(CCC(CCOC)CC2)OC1=O (stereo not drawn) [Example I-2-b-2]
chromatographic logP [4, 12]: 5.43

CCOC(=O)OC1=C(c2cc(-c3ccc(Cl)cc3)ccc2C)C(=O)OC12CCC(COC)CC2 (stereo not drawn) [Example I-2-c-2]
log P [4, 13]: 4.95

CCOC(=O)OC1=C(c2c(CC)cc(C)cc2CC)C(=O)OC12CCCC(CCOC)C2 (stereo not drawn) [Example I-2-c-3]
log P [4, 13]: 4.97

CCOC(=O)C1(OC(=O)Cc2c(C)cc(C)cc2C)CCC(CCOC)CC1 (stereo not drawn) [III-1]
log P ([4]; cis/trans isomer mixture, HPLC reversed-phase column (C18), acidic range (pH 2.3), 43° C.): 5.13
chromatographic logP ([4]; pH 2.3, cis/trans isomer mixture, HPLC reversed-phase column (C18), acidic range (pH 2.3), 43° C.): 5.01
